Each block holds one compound with its values, some of them ahead of it.
System: K24384-001-R-PDC complex spheroid growth
Experiment: Anticancer human tumor K24384-001-R-PDC patient-derived pancreatic adenocarcinoma cell line growth inhibition [AhR]
Settings: for IC50: curve of first compound; for viability, T/C: stronger effect = lower value
Method in brief: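 Complex tumor spheroids co-cultured with HUVEC and human MSC stroma; AhR antagonists tested in combination with standard-of-care and investigational agents. Top concentration at or near clinical Cmax (else 10 microM), half-log dilutions; growth expressed as percent test/control.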

[1] = second compound 0.1 µM, first compound 0.0316 µM
[2] = second compound 0.1 µM, first compound 0.1 µM
[3] = second compound 0.1 µM, first compound 0.316 µM
[4] = second compound 0.1 µM, first compound 1 µM
[5] = second compound 0.316 µM, first compound 0.0316 µM
[6] = second compound 0.316 µM, first compound 0.1 µM
[7] = second compound 0.316 µM, first compound 0.316 µM
[8] = second compound 0.316 µM, first compound 1 µM
[9] = second compound 1 µM, first compound 0.0316 µM
[10] = second compound 1 µM, first compound 0.1 µM
[11] = second compound 1 µM, first compound 0.316 µM
[12] = second compound 1 µM, first compound 1 µM
[13] = second compound 3.16 µM, first compound 0.0316 µM
[14] = second compound 3.16 µM, first compound 0.1 µM
[15] = second compound 3.16 µM, first compound 0.316 µM
[16] = second compound 3.16 µM, first compound 1 µM
[17] = second compound 10 µM, first compound 0.0316 µM
[18] = second compound 10 µM, first compound 0.1 µM
[19] = second compound 10 µM, first compound 0.316 µM
[20] = second compound 10 µM, first compound 1 µM
[21] = second compound 0.1 µM, first compound 3.16 µM
[22] = second compound 0.1 µM, first compound 10 µM
[23] = second compound 0.316 µM, first compound 3.16 µM
[24] = second compound 0.316 µM, first compound 10 µM
[25] = second compound 1 µM, first compound 3.16 µM
[26] = second compound 1 µM, first compound 10 µM
[27] = second compound 3.16 µM, first compound 3.16 µM
[28] = second compound 3.16 µM, first compound 10 µM
[29] = second compound 10 µM, first compound 3.16 µM
[30] = second compound 10 µM, first compound 10 µM
[31] = second compound 0.1 µM, first compound 0.00949 µM
[32] = second compound 0.1 µM, first compound 0.03 µM
[33] = second compound 0.1 µM, first compound 0.0949 µM
[34] = second compound 0.1 µM, first compound 0.3 µM
[35] = second compound 0.316 µM, first compound 0.00949 µM
[36] = second compound 0.316 µM, first compound 0.03 µM
[37] = second compound 0.316 µM, first compound 0.0949 µM
[38] = second compound 0.316 µM, first compound 0.3 µM
[39] = second compound 1 µM, first compound 0.00949 µM
[40] = second compound 1 µM, first compound 0.03 µM
[41] = second compound 1 µM, first compound 0.0949 µM
[42] = second compound 1 µM, first compound 0.3 µM
[43] = second compound 3.16 µM, first compound 0.00949 µM
[44] = second compound 3.16 µM, first compound 0.03 µM
[45] = second compound 3.16 µM, first compound 0.0949 µM
[46] = second compound 3.16 µM, first compound 0.3 µM
[47] = second compound 10 µM, first compound 0.00949 µM
[48] = second compound 10 µM, first compound 0.03 µM
[49] = second compound 10 µM, first compound 0.0949 µM
[50] = second compound 10 µM, first compound 0.3 µM
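For viability, T/C in this document: percent of DMSO vehicle-treated spheroid viability set as 100%.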

IC50 (second compound 0.1 µM): 115 nM
IC50 (second compound 0.316 µM): 91 nM
IC50 (second compound 1 µM): 94.7 nM
IC50 (second compound 3.16 µM): 54.6 nM
IC50 (second compound 10 µM): 52.5 nM
Compound: CC1COCCN1c1cc(-c2ccnn2C)c2ccnc(-c3ccn[nH]3)c2n1 (stereo not given) + CC(CO)NC(=O)c1cc(-c2ccc(Cl)cc2)nn(-c2cnn(C)c2)c1=O
viability, T/C (second compound 0.1 µM, first compound 0.00316 µM): 105%
viability, T/C (second compound 0.1 µM, first compound 0.01 µM): 93.7%
viability, T/C [1]: 80.8%
viability, T/C [2]: 51.7%
viability, T/C [3]: 33%
viability, T/C [4]: 26.4%
viability, T/C (second compound 0.316 µM, first compound 0.00316 µM): 111%
viability, T/C (second compound 0.316 µM, first compound 0.01 µM): 118%
viability, T/C [5]: 75.5%
viability, T/C [6]: 50.9%
viability, T/C [7]: 32.3%
viability, T/C [8]: 24.3%
viability, T/C (second compound 1 µM, first compound 0.00316 µM): 94%
viability, T/C (second compound 1 µM, first compound 0.01 µM): 121%
viability, T/C [9]: 86.4%
viability, T/C [10]: 49%
viability, T/C [11]: 28%
viability, T/C [12]: 21.3%
viability, T/C (second compound 3.16 µM, first compound 0.00316 µM): 73.1%
viability, T/C (second compound 3.16 µM, first compound 0.01 µM): 74.8%
viability, T/C [13]: 64.2%
viability, T/C [14]: 34.2%
viability, T/C [15]: 23.7%
viability, T/C [16]: 25.2%
viability, T/C (second compound 10 µM, first compound 0.00316 µM): 85.8%
viability, T/C (second compound 10 µM, first compound 0.01 µM): 79.2%
viability, T/C [17]: 60.1%
viability, T/C [18]: 37.7%
viability, T/C [19]: 27.2%
viability, T/C [20]: 28.4%

IC50 (second compound 0.1 µM): > 10000 nM
IC50 (second compound 0.316 µM): 3120 nM
IC50 (second compound 1 µM): 9450 nM
IC50 (second compound 3.16 µM): 3590 nM
IC50 (second compound 10 µM): > 10000 nM
Compound: CC1COCCN1c1cc(C2(S(C)(=N)=O)CC2)nc(-c2ccnc3[nH]ccc23)n1 (stereo not given) + CC(CO)NC(=O)c1cc(-c2ccc(Cl)cc2)nn(-c2cnn(C)c2)c1=O
viability, T/C [1]: 113%
viability, T/C [2]: 128%
viability, T/C [3]: 133%
viability, T/C [4]: 77.7%
viability, T/C [21]: 55.8%
viability, T/C [22]: 42.8%
viability, T/C [5]: 136%
viability, T/C [6]: 133%
viability, T/C [7]: 136%
viability, T/C [8]: 84.2%
viability, T/C [23]: 52.7%
viability, T/C [24]: 46.2%
viability, T/C [9]: 142%
viability, T/C [10]: 139%
viability, T/C [11]: 136%
viability, T/C [12]: 103%
viability, T/C [25]: 66.5%
viability, T/C [26]: 48.6%
viability, T/C [13]: 125%
viability, T/C [14]: 96.8%
viability, T/C [15]: 132%
viability, T/C [16]: 96.4%
viability, T/C [27]: 53.1%
viability, T/C [28]: 40.6%
viability, T/C [17]: 122%
viability, T/C [18]: 125%
viability, T/C [19]: 130%
viability, T/C [20]: 107%
viability, T/C [29]: 64%
viability, T/C [30]: 53.9%

IC50 (second compound 0.1 µM): 7260 nM
IC50 (second compound 0.316 µM): 3900 nM
IC50 (second compound 1 µM): 2830 nM
IC50 (second compound 3.16 µM): 2920 nM
IC50 (second compound 10 µM): 1480 nM
Compound: COc1ccc([C@@H](O)c2cc(-c3ncnc4cc(N5CCOCC5)ccc34)c(F)cc2Cl)nn1 + CC(CO)NC(=O)c1cc(-c2ccc(Cl)cc2)nn(-c2cnn(C)c2)c1=O
viability, T/C [1]: 90.1%
viability, T/C [2]: 82.7%
viability, T/C [3]: 97.6%
viability, T/C [4]: 75.7%
viability, T/C [21]: 69.2%
viability, T/C [22]: 43%
viability, T/C [5]: 103%
viability, T/C [6]: 99.5%
viability, T/C [7]: 85.2%
viability, T/C [8]: 67.6%
viability, T/C [23]: 55.1%
viability, T/C [24]: 37%
viability, T/C [9]: 86.6%
viability, T/C [10]: 90%
viability, T/C [11]: 81.1%
viability, T/C [12]: 66.3%
viability, T/C [25]: 49%
viability, T/C [26]: 35.8%
viability, T/C [13]: 74.5%
viability, T/C [14]: 69.7%
viability, T/C [15]: 80.4%
viability, T/C [16]: 66%
viability, T/C [27]: 49.2%
viability, T/C [28]: 33.8%
viability, T/C [17]: 71.3%
viability, T/C [18]: 75.2%
viability, T/C [19]: 68.2%
viability, T/C [20]: 52.1%
viability, T/C [29]: 42.5%
viability, T/C [30]: 28.9%

IC50 (second compound 0.1 µM): > 300 nM
IC50 (second compound 0.316 µM): > 300 nM
IC50 (second compound 1 µM): > 300 nM
IC50 (second compound 3.16 µM): > 300 nM
IC50 (second compound 10 µM): > 300 nM
Compound: Nc1ncn(C2CC(O)C(CO)S2)c(=O)n1 (stereo not given) + CC(CO)NC(=O)c1cc(-c2ccc(Cl)cc2)nn(-c2cnn(C)c2)c1=O
viability, T/C (second compound 0.1 µM, first compound 0.000949 µM): 115%
viability, T/C (second compound 0.1 µM, first compound 0.003 µM): 126%
viability, T/C [31]: 114%
viability, T/C [32]: 74.6%
viability, T/C [33]: 84.4%
viability, T/C [34]: 72.4%
viability, T/C (second compound 0.316 µM, first compound 0.000949 µM): 118%
viability, T/C (second compound 0.316 µM, first compound 0.003 µM): 130%
viability, T/C [35]: 134%
viability, T/C [36]: 88.3%
viability, T/C [37]: 98.2%
viability, T/C [38]: 69.8%
viability, T/C (second compound 1 µM, first compound 0.000949 µM): 137%
viability, T/C (second compound 1 µM, first compound 0.003 µM): 127%
viability, T/C [39]: 148%
viability, T/C [40]: 125%
viability, T/C [41]: 92.2%
viability, T/C [42]: 65.5%
viability, T/C (second compound 3.16 µM, first compound 0.000949 µM): 87.3%
viability, T/C (second compound 3.16 µM, first compound 0.003 µM): 124%
viability, T/C [43]: 119%
viability, T/C [44]: 118%
viability, T/C [45]: 92.6%
viability, T/C [46]: 76.2%
viability, T/C (second compound 10 µM, first compound 0.000949 µM): 105%
viability, T/C (second compound 10 µM, first compound 0.003 µM): 106%
viability, T/C [47]: 136%
viability, T/C [48]: 107%
viability, T/C [49]: 105%
viability, T/C [50]: 83.4%

IC50 (second compound 0.1 µM): 280 nM
IC50 (second compound 0.316 µM): 298 nM
IC50 (second compound 1 µM): 246 nM
IC50 (second compound 3.16 µM): 236 nM
IC50 (second compound 10 µM): 212 nM
Compound: O=C(C=Cn1cnc(-c2cc(C(F)(F)F)cc(C(F)(F)F)c2)n1)NNc1cnccn1 + CC(CO)NC(=O)c1cc(-c2ccc(Cl)cc2)nn(-c2cnn(C)c2)c1=O
viability, T/C [31]: 107%
viability, T/C [32]: 108%
viability, T/C [33]: 80.1%
viability, T/C [34]: 48.7%
viability, T/C (second compound 0.1 µM, first compound 0.949 µM): 34.1%
viability, T/C (second compound 0.1 µM, first compound 3 µM): 28.1%
viability, T/C [35]: 102%
viability, T/C [36]: 99.3%
viability, T/C [37]: 74.8%
viability, T/C [38]: 52%
viability, T/C (second compound 0.316 µM, first compound 0.949 µM): 30.5%
viability, T/C (second compound 0.316 µM, first compound 3 µM): 26.6%
viability, T/C [39]: 86.1%
viability, T/C [40]: 102%
viability, T/C [41]: 72.1%
viability, T/C [42]: 46.5%
viability, T/C (second compound 1 µM, first compound 0.949 µM): 33.4%
viability, T/C (second compound 1 µM, first compound 3 µM): 28.6%
viability, T/C [43]: 77.8%
viability, T/C [44]: 94.3%
viability, T/C [45]: 79.6%
viability, T/C [46]: 41.8%
viability, T/C (second compound 3.16 µM, first compound 0.949 µM): 29.6%
viability, T/C (second compound 3.16 µM, first compound 3 µM): 23.3%
viability, T/C [47]: 76.2%
viability, T/C [48]: 82.3%
viability, T/C [49]: 70.7%
viability, T/C [50]: 41%
viability, T/C (second compound 10 µM, first compound 0.949 µM): 29.3%
viability, T/C (second compound 10 µM, first compound 3 µM): 27.3%

From PubChem BioAssay AID1919009 (Molecular Pharmacology Branch, DTP, NCI, 2023)
